# Structures can show the parent of a compound that is named as a salt. Where two headings read alike, the source gives them in different places.
# Experiments:
# [1] = tested on: NCI-H358 cells (express KRas G12C), Phospho-ERK; test: Cellular inhibition of KRas G12C: Phospho-ERK in NCI-H358 cells; assay type: cell-based; settings: Homo sapiens, pERK(Thr202/Tyr204) normalized with GAPDH, NCI-H358 cells, 3 hours, read-out: IC50
# Procedure, shortened: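 IC50 derived by 4-parameter fit of GAPDH-normalized pERK(Thr202/Tyr204) signal, as percent of DMSO control. Signal came from in-cell immunodetection with infrared secondaries after 3 h compound exposure of KRas G12C NCI-H358 cells at 0.5% DMSO.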
# KRas G12C = KRas G12C (Homo sapiens, UniProt P01116, C118S/C51S/C80L/G12C); test: KRas G12C Modification Assay (LCMS detection of covalent adduct); assay type: binding; settings: normalized percent of control; tested at 5 μM concentration for 3 hours
# Procedure, shortened: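 Covalent modification was read by reverse-phase LC/MS of intact protein after compound exposure, each reaction stopped at its time point with 25 mM acetic acid. Unmodified-protein signal, taken as percent of total, was normalised to untreated protein and reported as POC.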
Structure (SMILES),IC50 [1],POC (KRas G12C),"IC50 ([1]; NCI-H358, 3 h)"
"C=CC(=O)N1CCN(c2nc(OCCN(C)C)nc3c2CC(C)N(c2cc(O)cc4ccccc24)C3)CC1 (centres unmarked) [Example 48, 1-(4-(2-(2-(dimethylamino)ethoxy)-7-(3-hydroxynaphthalen-1-yl)-6-methyl-5,6,7,8-tetrahydropyrido[3,4-d]pyrimidin-4-yl)piperazin-1-yl)prop-2-en-1-one trifluoroacetate]",> 1 µM,C (“C”>50% POC),
"C=CC(=O)N1CCN(c2nc(OCC(C)N(C)C)nc3c2CCN(c2cc(O)cc4ccccc24)C3)CC1 (centres unmarked) [Example 73, 1-(4-(2-(2-(dimethylamino)propoxy)-7-(3-hydroxynaphthalen-1-yl)-5,6,7,8-tetrahydropyrido[3,4-d]pyrimidin-4-yl)piperazin-1-yl)prop-2-en-1-one]",,C (“C”>50% POC),> 1 µM
"C=CC(=O)N1CCN(c2nc(OCCCN3CCOCC3)nc3c2CCN(c2cc(O)cc4cc(C)[nH]c24)C3)CC1 [Example 167, 1-(4-(7-(5-hydroxy-2-methyl-1H-indol-7-yl)-2-(3-morpholinopropoxy)-5,6,7,8-tetrahydropyrido[3,4-d]pyrimidin-4-yl)piperazin-1-yl)prop-2-en-1-one]",> 1 µM,B (“B”>25% POC−≤50% POC),
"C=CC(=O)N1CCN(c2nc(OCCCN3CCOCC3)nc3c2CCN(c2cc(O)ccc2OC(C)C)C3)CC1 [Example 96, 1-(4-(7-(5-hydroxy-2-isopropoxyphenyl)-2-(3-morpholinopropoxy)-5,6,7,8-tetrahydropyrido[3,4-d]pyrimidin-4-yl)piperazin-1-yl)prop-2-en-1-one]",> 1 µM,A (“A”≤25% POC),
"C=CC(=O)N1CCN(c2nc(OCC3CN(C)CCN3C)nc3c2CCN(c2cc(O)cc4ccccc24)C3)CC1 (centres unmarked) [Example 219, 1-(4-(2-((1,4-dimethylpiperazin-2-yl)methoxy)-7-(3-hydroxynaphthalen-1-yl)-5,6,7,8-tetrahydropyrido[3,4-d]pyrimidin-4-yl)piperazin-1-yl)prop-2-en-1-one]",,C (“C”>50% POC),> 1 µM
"C=CC(=O)N1CCN(c2nc(OCCCN3CCOCC3)nc3c2CCN(c2c(C)ccc4[nH]ccc24)C3)CC1 [Example 209, 1-(4-(7-(5-methyl-1H-indol-4-yl)-2-(3-morpholinopropoxy)-5,6,7,8-tetrahydropyrido[3,4-d]pyrimidin-4-yl)piperazin-1-yl)prop-2-en-1-one]",> 1 µM,C (“C”>50% POC),
"C=CC(=O)N1CCN(c2nc(OC[C@@H]3CCCN3C)nc3c2CCN(c2cnccc2C#N)C3)C[C@@H]1CC#N [Example 305, 3-(4-((S)-4-acryloyl-3-(cyanomethyl)piperazin-1-yl)-2-(((S)-1-methylpyrrolidin-2-yl)methoxy)-5,6-dihydropyrido[3,4-d]pyrimidin-7(81)-yl)isonicotinonitrile]",,C (“C”>50% POC),> 1 µM
"C=CC(=O)N1CCN(c2nc(OCCCCN3CCOCC3)nc3c2CCN(c2cc(O)cc4ccccc24)C3)CC1 [Example 35, 1-(4-(7-(3-hydroxynaphthalen-1-yl)-2-(4-morpholinobutoxy)-5,6,7,8-tetrahydropyrido[3,4-d]pyrimidin-4-yl)piperazin-1-yl)prop-2-en-1-one trifluoroacetate]",,C (“C”>50% POC),> 1 µM
"CN(C)C/C=C/C(=O)N1CCN(c2nc(OC[C@H]3CCCN3C)nc3c2CCN(c2cccc(Cl)c2C(F)(F)F)C3)C[C@@H]1CC#N [Example 422, 2-((S)-4-(7-(3-chloro-2-(trifluoromethyl)phenyl)-2-(((R)-1-methylpyrrolidin-2-yl)methoxy)-5,6,7,8-tetrahydropyrido[3,4-d]pyrimidin-4-yl)-1-((E)-4-(dimethylamino)but-2-enoyl)piperazin-2-yl)acetonitrile]",,C (“C”>50% POC),0.0001 to 1 µM
"C=CC(=O)N1CCN(c2nc(OC[C@@H]3C[C@@H](O)CN3C)nc3c2CCN(c2cccc4ccccc24)C3)CC1CC#N (stereo partly drawn) [Example 218, 2-(1-acryloyl-4-(2-(((2S,4R)-4-hydroxy-1-methylpyrrolidin-2-yl)methoxy)-7-(naphthalen-1-yl)-5,6,7,8-tetrahydropyrido[3,4-d]pyrimidin-4-yl)piperazin-2-yl)acetonitrile]",,C (“C”>50% POC),0.0001 to 1 µM
"C=CC(=O)N1CCN(c2ncnc3c2CCN(c2cncc4ccccc24)C3)CC1 [Example 69, 1-(4-(7-(isoquinolin-4-yl)-5,6,7,8-tetrahydropyrido[3,4-d]pyrimidin-4-yl)piperazin-1-yl)prop-2-en-1-one]",> 1 µM,A (“A”≤25% POC),
"C=CC(=O)N1CCN(c2nc(O[C@H](C)CN3CCCCC3)nc3c2CCN(c2cc(O)cc4ccccc24)C3)CC1 [Example 75, (R)-1-(4-(7-(3-hydroxynaphthalen-1-yl)-2-((1-(piperidin-1-yl)propan-2-yl)oxy)-5,6,7,8-tetrahydropyrido[3,4-d]pyrimidin-4-yl)piperazin-1-yl)prop-2-en-1-one]",,C (“C”>50% POC),0.0001 to 1 µM
"C=CC(=O)N1CCN(c2nc(OC[C@@H]3CCN(C)C3)nc3c2CCN(c2c(C(F)(F)F)ccc4[nH]ncc24)C3)CC1CC#N (stereo partly drawn) [Example 313, 2-[4-[2-[[(3R)-1-methylpyrrolidin-3-yl]methoxy]-7-[5-(trifluoromethyl)-1H-indazol-4-yl]-6,8-dihydro-5H-pyrido[3,4-d]pyrimidin-4-yl]-1-prop-2-enoyl-piperazin-2-yl]acetonitrile]",0.0001 to 1 µM,C (“C”>50% POC),
"C=CC(=O)N1CCN(c2nc(OC[C@@H]3C[C@@H](OC)CN3CC)nc3c2CCN(c2cccc(Cl)c2C(F)(F)F)C3)C[C@@H]1CC#N [Example 335, 2-[(2S)-4-[7-[3-chloro-2-(trifluoromethyl)phenyl]-2-[[(2S,4R)-1-ethyl-4-methoxy-pyrrolidin-2-yl]methoxy]-6,8-dihydro-5H-pyrido[3,4-d]pyrimidin-4-yl]-1-prop-2-enoyl-piperazin-2-yl]acetonitrile]",,C (“C”>50% POC),0.0001 to 1 µM
"C=CC(=O)N1CCN(c2nc(OC[C@@H]3CN(C)CCN3)nc3c2CCN(c2cccc4ccccc24)C3)CC1CC#N (stereo partly drawn) [Example 223, 2-(1-acryloyl-4-(2-(((S)-4-methylpiperazin-2-yl)methoxy)-7-(naphthalen-1-yl)-5,6,7,8-tetrahydropyrido[3,4-d]pyrimidin-4-yl)piperazin-2-yl)acetonitrile]",,C (“C”>50% POC),0.0001 to 1 µM
"C=CC(=O)N1CCN(c2nc(OC[C@@H]3CCCN3C)nc3c2CCN(c2ccccc2CC(F)(F)F)C3)CC1CC#N (stereo partly drawn) [Example 240, 2-(1-acryloyl-4-(2-(((S)-1-methylpyrrolidin-2-yl)methoxy)-7-(2-(2,2,2-trifluoroethyl)phenyl)-5,6,7,8-tetrahydropyrido[3,4-d]pyrimidin-4-yl)piperazin-2-yl)acetonitrile]",,C (“C”>50% POC),> 1 µM
"C=CC(=O)N1CCN(c2nc(OC[C@@H]3CCC(C)(C)N3C)nc3c2CCN(c2cccc4ccccc24)C3)CC1CC#N (stereo partly drawn) [Example 301, 2-[4-[7-(1-naphthyl)-2-[[(2S)-1,5,5-trimethylpyrrolidin-2-yl]methoxy]-6,8-dihydro-5H-pyrido[3,4-d]pyrimidin-4-yl]-1-prop-2-enoyl-piperazin-2-yl]acetonitrile]",,C (“C”>50% POC),0.0001 to 1 µM
"C=CC(=O)N1CCN(c2nc(O[C@H](C)CN(C)C)nc3c2CCN(c2cc(O)cc4ccccc24)C3)CC1 [Example 19, (R)-1-(4-(2-((1-(dimethylamino)propan-2-yl)oxy)-7-(3-hydroxynaphthalen-1-yl)-5,6,7,8-tetrahydropyrido[3,4-d]pyrimidin-4-yl)piperazin-1-yl)prop-2-en-1-one]",,C (“C”>50% POC),0.0001 to 1 µM
"C=CC(=O)N1CCN(c2nc(OCCCN3CCOCC3)nc3c2CCN(c2c(C)ccc4[nH]ncc24)C3)CC1 [Example 44, 1-(4-(7-(5-methyl-1H-indazol-4-yl)-2-(3-morpholinopropoxy)-5,6,7,8-tetrahydropyrido[3,4-d]pyrimidin-4-yl)piperazin-1-yl)prop-2-en-1-one]",> 1 µM,C (“C”>50% POC),
"C=CC(=O)N1CCN(c2nc(O[C@H](C)[C@H]3CCCN3C)nc3c2CCN(c2cc(O)cc4ccccc24)C3)CC1 [Example 129, 1-[4-[7-(3-hydroxy-1-naphthyl)-2-[(1R)-1-[(2R)-1-methylpyrrolidin-2-yl]ethoxy]-6,8-dihydro-5H-pyrido[3,4-d]pyrimidin-4-yl]piperazin-1-yl]prop-2-en-1-one]",,C (“C”>50% POC),0.0001 to 1 µM
"C=CC(=O)N1CCN(c2nc(OC[C@@H]3CCCN3C)nc3c2CCN(c2cccc4ccccc24)C3)C[C@@H]1CC#N [Example 234, 2-((S)-1-acryloyl-4-(2-(((S)-1-methylpyrrolidin-2-yl)methoxy)-7-(naphthalen-1-yl)-5,6,7,8-tetrahydropyrido[3,4-d]pyrimidin-4-yl)piperazin-2-yl)acetonitrile]",0.0001 to 1 µM,C (“C”>50% POC),
"C=CC(=O)N1CCN(c2nc(OC[C@@H]3CCCN3C)nc3c2CCN(c2ccccc2C#N)C3)C[C@@H]1CC#N [Example 325, 2-[4-[(3S)-3-(cyanomethyl)-4-prop-2-enoyl-piperazin-1-yl]-2-[[(2S)-1-methylpyrrolidin-2-yl]methoxy]-6,8-dihydro-5H-pyrido[3,4-d]pyrimidin-7-yl]benzonitrile]",,C (“C”>50% POC),> 1 µM

# — US10125134B2 (Mirati Therapeutics, Inc., priority 2016, dated 2018)
